Laboratory results published in patent publication US10669272B2, “Substituted naphthyridinone compounds useful as T cell activators” (BRISTOL-MYERS SQUIBB COMPANY, priority 2018, dated 2020).
Read-outs that look alike come from different tables or passages of the source.

Tests used:
human DGKα = biological target: T1, human DGKα (Homo sapiens, UniProt P23743); experiment: DGKα LIPGLO assay (extruded liposome substrate), in vitro DGK inhibition; format: biochemical; conditions: read-out: DGKa LIPGLO IC50
T1 construct: TVMV protease cleavage site (C); Hexa-His (C); made in house; host or cells: Sf9 insect cells (baculovirus, Bac-to-Bac)
T1 sequence (P23743 with tags, fused parts or gaps): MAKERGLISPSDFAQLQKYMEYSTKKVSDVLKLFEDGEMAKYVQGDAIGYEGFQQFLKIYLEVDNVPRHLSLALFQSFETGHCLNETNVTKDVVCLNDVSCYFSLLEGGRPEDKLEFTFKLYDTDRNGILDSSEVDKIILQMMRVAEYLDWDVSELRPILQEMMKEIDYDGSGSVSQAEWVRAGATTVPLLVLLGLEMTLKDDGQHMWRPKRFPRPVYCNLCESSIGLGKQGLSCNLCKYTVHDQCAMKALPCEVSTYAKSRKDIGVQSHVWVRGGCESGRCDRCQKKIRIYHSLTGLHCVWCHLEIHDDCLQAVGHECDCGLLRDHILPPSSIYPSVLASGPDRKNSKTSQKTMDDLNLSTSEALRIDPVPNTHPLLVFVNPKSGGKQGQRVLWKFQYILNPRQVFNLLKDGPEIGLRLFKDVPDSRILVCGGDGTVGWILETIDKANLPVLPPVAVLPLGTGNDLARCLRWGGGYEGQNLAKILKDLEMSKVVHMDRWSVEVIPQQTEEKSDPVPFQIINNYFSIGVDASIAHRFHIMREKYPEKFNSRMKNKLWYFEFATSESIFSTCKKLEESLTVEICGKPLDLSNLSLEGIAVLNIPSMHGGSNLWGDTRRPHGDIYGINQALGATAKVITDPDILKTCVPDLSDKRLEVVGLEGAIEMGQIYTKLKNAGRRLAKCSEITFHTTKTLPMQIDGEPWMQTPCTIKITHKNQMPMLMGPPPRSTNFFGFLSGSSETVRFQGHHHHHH

human DGKζ = biological target: T2, human DGKζ (Homo sapiens, UniProt Q13574); experiment: DGKζ LIPGLO assay (extruded liposome substrate), in vitro DGK inhibition; format: biochemical; conditions: read-out: DGKz LIPGLO IC50
T2 construct: TVMV protease cleavage site (C); Hexa-His (C); made in house; host or cells: Sf9 insect cells (baculovirus, Bac-to-Bac)
T2 sequence (Q13574 with tags, fused parts or gaps isoform Q13574-4): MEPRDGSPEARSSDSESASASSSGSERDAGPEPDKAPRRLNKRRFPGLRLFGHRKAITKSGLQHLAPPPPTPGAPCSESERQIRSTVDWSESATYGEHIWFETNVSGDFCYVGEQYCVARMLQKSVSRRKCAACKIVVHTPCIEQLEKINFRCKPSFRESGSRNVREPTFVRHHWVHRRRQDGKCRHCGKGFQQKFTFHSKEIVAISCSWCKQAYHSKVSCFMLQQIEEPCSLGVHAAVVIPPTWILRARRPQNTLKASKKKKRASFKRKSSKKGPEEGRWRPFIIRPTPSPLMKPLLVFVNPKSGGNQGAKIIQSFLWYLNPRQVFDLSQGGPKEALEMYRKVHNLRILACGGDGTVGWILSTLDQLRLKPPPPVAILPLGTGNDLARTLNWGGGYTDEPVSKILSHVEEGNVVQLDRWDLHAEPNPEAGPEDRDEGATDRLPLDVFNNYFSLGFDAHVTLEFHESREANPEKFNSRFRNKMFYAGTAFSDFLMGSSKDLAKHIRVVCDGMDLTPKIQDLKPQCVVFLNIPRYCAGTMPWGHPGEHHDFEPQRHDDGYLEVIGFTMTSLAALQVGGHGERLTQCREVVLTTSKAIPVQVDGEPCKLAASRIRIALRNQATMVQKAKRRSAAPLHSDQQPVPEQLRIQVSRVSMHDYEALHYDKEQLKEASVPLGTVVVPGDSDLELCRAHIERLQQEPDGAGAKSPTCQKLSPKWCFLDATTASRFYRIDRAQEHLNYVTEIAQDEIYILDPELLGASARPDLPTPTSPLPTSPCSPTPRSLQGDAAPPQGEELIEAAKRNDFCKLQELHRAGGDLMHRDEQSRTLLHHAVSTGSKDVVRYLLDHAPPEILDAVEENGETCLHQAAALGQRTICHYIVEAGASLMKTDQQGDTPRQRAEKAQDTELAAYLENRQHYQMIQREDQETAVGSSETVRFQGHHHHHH

Human venous whole blood = experiment: Human whole blood IFN-γ assay; format: cell-based; conditions: human whole blood, read-out: INFg Whole Blood Normalized Agonist EC50;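 also: blood from healthy donors exposed to compound for 1 h before stimulation with anti-CD3 and anti-CD28 at 1 µg/mL each, IFN-γ quantified in supernatant by AlphaLISA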
[1] = normalized to 3 μM reference compound with anti-CD3 plus anti-CD28 as 100% activation
[2] = anti-CD3 plus anti-CD28, 24 hours, 3 μM reference compound = 100% activation
[3] = Homo sapiens, 24 h, normalized to 3 μM reference compound with anti-CD3 plus anti-CD28 as 100% activation
[4] = Homo sapiens, 24 h, anti-CD3 plus anti-CD28, 24 hours, 3 μM reference compound = 100% activation

IC50 (human DGKα; liposome (LIPGLO) assay) [nM]	IC50 (human DGKζ; liposome (LIPGLO) assay) [nM]	Structure (SMILES)	EC50 (Human venous whole blood; [1]) [nM]	EC50 (Human venous whole blood; [3]) [nM]	also measured
4600	13000	C[C@@H]1CN(c2cc(=O)n(C)c3ccc(C#N)nc23)[C@@H](C)CN1C(c1ccc(F)cc1)C(C)(C)O (single isomer, unassigned) [Example 1309]	7900	–	–
–	–	C[C@@H]1CN(c2c(C#N)c(=O)n(C)c3ccc(C#N)nc23)[C@@H](C)CN1C(c1ccc(F)cc1)c1ccon1 (single isomer, unassigned) [Example 850]	–	–	IC50 (human DGKα; DGKα liposome (LIPGLO) assay): 510 nM; IC50 (human DGKζ; DGKζ liposome (LIPGLO) assay): 5400 nM; EC50 (Human venous whole blood; [2]): 3600 nM
230	540	Cc1ccc(C(c2ccc(C)cn2)N2C[C@H](C)N(c3cc(=O)n(C)c4ccc(C#N)nc34)C[C@H]2C)cc1 (single isomer, unassigned) [Example 454]	–	470	–
11000	430	C[C@@H]1CN(C(c2ccc(F)cc2)c2ccc(Cl)cc2)[C@@H](CO)CN1c1cc(=O)n(C)c2ccc(C#N)nc12 (single isomer, unassigned) [Example 1174]	–	1400	–
3400	1100	CC(=O)NC[C@@H]1CN(c2cc(=O)n(C)c3ccc(C#N)nc23)[C@@H](C)CN1C(c1ccc(F)cc1)c1ccc(F)cc1 [Example 1165, N-(((2R,5S)-1-(bis(4-fluorophenyl)methyl)-4-(6-cyano-1-methyl-2-oxo-1,2-dihydro-1,5-naphthyridin-4-yl)-5-methylpiperazin-2-yl)methyl)acetamide]	–	240	–
29000	2200	C[C@@H]1CN(c2c(C#N)c(=O)n(C)c3ccc(C#N)nc23)CCN1C(c1ccc(F)cc1)c1cn(C)cn1 (single isomer, unassigned) [Example 1027]	7300	–	–
650	3500	CC[C@H]1CN(Cc2cc(F)c(F)c(F)c2)[C@H](C)CN1c1cc(=O)n(C)c2ccc(C#N)nc12 [Example 1149]	–	510	–
43000	720	CC(c1ccc(F)cc1)N1C[C@@H](C)N(c2cc(=O)n(C)c3ccc(C#N)nc23)C[C@@H]1CO (single isomer, unassigned) [Example 1178]	3100	–	–
490	1100	CC(c1cc(C2CC2)on1)N1C[C@H](C)N(c2cc(=O)n(C)c3ccc(C#N)nc23)C[C@H]1C (single isomer, unassigned) [Example 1281]	1600	–	–
160	450	COC[C@@H]1CN(c2cc(=O)n(C)c3ccc(C#N)nc23)[C@@H](C)CN1C(c1ccc(F)cc1)c1ccon1 (single isomer, unassigned) [Example 1399]	3000	–	–
230	1000	Cc1ccnc(C(c2ccc(F)cc2)N2C[C@H](C)N(c3cc(=O)n(C)c4ccc(C#N)nc34)C[C@H]2C)c1 (single isomer, unassigned) [Example 456]	1100	–	–
24	15	CC[C@H]1CN(C(C)c2ccc(OC)cc2)[C@H](CC)CN1c1cc(=O)n(C)c2ccc(C#N)nc12 (single isomer, unassigned) [Example 1366]	11	–	–
22000	98	C[C@H]1CN(C(c2ccc(F)cc2)c2ccc(F)cc2)[C@H](CNS(C)(=O)=O)CN1c1cc(=O)n(C)c2ccc(C#N)nc12 [Example 1410, N-(((2S,5S)-1-(bis(4-fluorophenyl)methyl)-4-(6-cyano-1-methyl-2-oxo-1,2-dihydro-1,5-naphthyridin-4-yl)-5-methylpiperazin-2-yl)methyl)methanesulfonamide]	–	1800	–
270	120	CC[C@@H]1CN(c2cc(=O)n(C)c3ccc(C#N)nc23)[C@@H](C)CN1C(c1ccc(F)cc1)c1ccc(C(F)(F)F)cn1 (single isomer, unassigned) [Example 1106]	520	–	–
–	–	Cc1ccc(C(c2ccc(C)cc2)N2CCN(c3c(C#N)c(=O)n(C)c4ccc(C#N)nc34)C[C@H]2C)cc1 [Example 870]	–	–	IC50 (human DGKα; DGKα liposome (LIPGLO) assay): 2500 nM; IC50 (human DGKζ; DGKζ liposome (LIPGLO) assay): 310 nM; EC50 (Human venous whole blood; [4]): 1400 nM
> 250000	8900	COC[C@H]1CN(c2cc(=O)n(C)c3ccc(C#N)nc23)[C@H](C)CN1C(c1ccc(F)cc1)c1ccc(F)cc1 [Example 1183, 8-((2R,5R)-4-(bis(4-fluorophenyl)methyl)-5-(methoxymethyl)-2-methylpiperazin-1-yl)-5-methyl-6-oxo-5,6-dihydro-1,5-naphthyridine-2-carbonitrile]	–	9200	–
590	–	CC(c1csc(C(F)(F)F)n1)N1C[C@H](C)N(c2cc(=O)n(C)c3ccc(C#N)nc23)C[C@H]1C (single isomer, unassigned) [Example 1274]	3300	–	–
–	–	CC(c1ccc(C(F)(F)F)cc1)N1CCN(c2c(C#N)c(=O)n(C)c3ccc(C#N)nc23)C[C@H]1C (single isomer, unassigned) [Example 961]	–	–	IC50 (human DGKα; DGKα liposome (LIPGLO) assay): 1500 nM; EC50 (Human venous whole blood; [2]): 20000 nM

IC50 (human DGKα; liposome (LIPGLO) assay) [nM]	IC50 (human DGKζ; liposome (LIPGLO) assay) [nM]	Structure (SMILES)	EC50 (Human venous whole blood; [1]) [nM]	EC50 (Human venous whole blood; [3]) [nM]	also measured
2100	–	C[C@@H]1CN(c2c(F)c(=O)n(C)c3ccc(C#N)nc23)[C@@H](C)CN1C(c1ccc(Cl)cc1)c1ccc(OC(F)(F)F)cc1 (stereo partly drawn) [Example 323, 8-((2S,5R)-4-((4-chlorophenyl)(4-(trifluoromethoxy)phenyl)methyl)-2,5-dimethylpiperazin-1-yl)-7-fluoro-5-methyl-6-oxo-5,6-dihydro-1,5-naphthyridine-2-carbonitrile]	–	5700	–
–	3700	C[C@@H]1CN(c2cc(=O)n(C)c3ccc(C#N)nc23)[C@@H](C)CN1C(c1ccc(F)cc1)c1ccccc1P(C)(C)=O (stereo partly drawn) [Example 1287, 8-((2S,5R)-4-((2-(dimethylphosphoryl)phenyl)(4-fluorophenyl)methyl)-2,5-dimethylpiperazin-1-yl)-5-methyl-6-oxo-5,6-dihydro-1,5-naphthyridine-2-carbonitrile]	–	8400	–
–	70	CC[C@H]1CN(C(c2ccc(F)cc2)c2ccccn2)[C@H](CC)CN1c1cc(=O)n(C)c2ccc(C#N)nc12 (single isomer, unassigned) [Example 1044]	350	–	–
–	–	C[C@@H]1CN(c2c(C#N)c(=O)n(C)c3ccc(C#N)nc23)CCN1Cc1ccccc1OC(F)(F)F [Example 999]	–	–	IC50 (human DGKα; DGKα liposome (LIPGLO) assay): 270 nM; EC50 (Human venous whole blood; [4]): 17000 nM
–	320	CC(c1ccc(OC(F)(F)F)cc1F)N1C[C@H](C)N(c2cc(=O)n(C)c3ccc(C#N)nc23)C[C@H]1C (single isomer, unassigned) [Example 439]	680	–	–
–	–	C[C@@H]1CN(c2cc(=O)n(C)c3ccc(C#N)nc23)[C@@H](C)CN1C(c1ccc(F)cc1)c1nc(C2CCN(C)CC2)no1 (single isomer, unassigned) [Example 751]	–	–	IC50 (human DGKζ; DGKζ liposome (LIPGLO) assay): 17000 nM; EC50 (Human venous whole blood; [2]): 4500 nM
48000	–	Cc1oc(-c2cccc(F)c2)nc1CN1C[C@H](C)N(c2cc(=O)n(C)c3ccc(C#N)nc23)C[C@H]1C [Example 1429]	20000	–	–
–	220000	CC(c1ccc(P(C)(C)=O)cc1)N1C[C@H](C)N(c2c(C#N)c(=O)n(C)c3ccc(C#N)nc23)C[C@H]1C (single isomer, unassigned) [Example 1294]	–	20000	–
290000	–	C[C@@H]1CN(c2cc(=O)n(C)c3ccc(C#N)nc23)[C@@H](C)CN1C(c1ccc(F)cc1)c1ccccc1P(C)(C)=O (single isomer, unassigned) [Example 1288]	–	8800	–
760	–	CC(c1cc(C(C)(C)C)on1)N1C[C@H](C)N(c2cc(=O)n(C)c3ccc(C#N)nc23)C[C@H]1C (single isomer, unassigned) [Example 1284]	2800	–	–
–	190	CC(c1ccc(C(F)(F)F)cn1)N1C[C@H](C)N(c2cc(=O)n(C)c3ccc(C#N)nc23)C[C@H]1C (single isomer, unassigned) [Example 642]	–	3300	–
–	–	Cc1cccc(C(c2ccc(F)cc2)N2CCN(c3c(C#N)c(=O)n(C)c4ccc(C#N)nc34)C[C@H]2C)c1 (stereo partly shown) [Example 916]	–	–	IC50 (human DGKζ; DGKζ liposome (LIPGLO) assay): 450 nM; EC50 (Human venous whole blood; [2]): 1900 nM
–	1800	CC(c1ccc(OC(F)(F)F)cc1)N1C[C@H](C)N(c2cc(=O)n(C)c3ccc(C#N)nc23)C[C@H]1CN(C)C (stereo partly drawn) [Example 1413, 8-((2S,5R)-5-((dimethylamino)methyl)-2-methyl-4-(1-(4-(trifluoromethoxy)phenyl)ethyl)piperazin-1-yl)-5-methyl-6-oxo-5,6-dihydro-1,5-naphthyridine-2-carbonitrile]	–	1400	–
–	160	CC(c1ccc(Cl)cc1F)N1C[C@H](C)N(c2cc(=O)n(C)c3ccc(C#N)nc23)C[C@H]1C (stereo partly shown) [Example 1230]	–	100	–
2200	–	CC(c1cc(OC(F)(F)F)ccc1F)N1C[C@H](C)N(c2cc(=O)n(C)c3ccc(C#N)nc23)C[C@H]1C (stereo partly shown) [Example 1202]	1300	–	–
21000	–	Cc1oc(-c2cccc(F)c2)nc1CN1C[C@H](C)N(c2cc(=O)n(C)c3ccc(C#N)nc23)C[C@H]1C [Example 1430]	7000	–	–
–	–	Cc1noc(C(c2ccc(F)cc2)N2C[C@H](C)N(c3cc(=O)n(C)c4ccc(C#N)nc34)C[C@H]2C)n1 (stereo partly shown) [Example 746]	–	–	IC50 (human DGKζ; DGKζ liposome (LIPGLO) assay): 170 nM; EC50 (Human venous whole blood; [2]): 960 nM
–	70	COC[C@@H]1CN(c2cc(=O)n(C)c3ccc(C#N)nc23)[C@@H](C)CN1C(c1ccc(F)cc1)c1nc(C2CC2)cs1 (single isomer, unassigned) [Example 1395]	190	–	–
